Measured values as given in ChEMBL document CHEMBL1201862, “PubChem BioAssay data set” (2004).
Blank lines part the entries; values can stand above or below the molecule they belong to. Calls of active or inactive are those of the source.

Tests used:
[1] = molecular target: Cytochrome P450 3A4 (Homo sapiens, UniProt P08684);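 further: CYP3A4 tested as one member of a cytochrome P450 panel screen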
[2] = molecular target: Cytochrome P450 2C19 (Homo sapiens, UniProt P33261); assay: Cytochrome panel assay with activity outcomes. Panel member name: p450-cyp2c19 Compounds with AC50 equal or less than 10 uM are considered active; type: functional; settings: read-out: AC50
Sequence of Cytochrome P450 2C19 (P33261 whole entry): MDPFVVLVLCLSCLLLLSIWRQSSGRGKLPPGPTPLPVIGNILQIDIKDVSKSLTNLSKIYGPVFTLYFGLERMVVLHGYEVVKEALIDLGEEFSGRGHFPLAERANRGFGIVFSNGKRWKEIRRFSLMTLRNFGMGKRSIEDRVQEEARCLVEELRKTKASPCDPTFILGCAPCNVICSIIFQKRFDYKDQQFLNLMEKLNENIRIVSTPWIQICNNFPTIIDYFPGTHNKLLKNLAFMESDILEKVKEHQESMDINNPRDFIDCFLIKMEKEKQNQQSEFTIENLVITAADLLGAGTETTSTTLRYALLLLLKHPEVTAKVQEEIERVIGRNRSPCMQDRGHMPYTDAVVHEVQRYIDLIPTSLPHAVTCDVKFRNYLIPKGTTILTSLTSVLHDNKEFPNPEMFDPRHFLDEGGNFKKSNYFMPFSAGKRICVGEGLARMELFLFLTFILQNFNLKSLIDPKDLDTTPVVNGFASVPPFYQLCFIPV

[3] = molecular target: Cytochrome P450 2C9 (Homo sapiens, UniProt P11712)
Sequence of Cytochrome P450 2C9 (P11712 whole entry): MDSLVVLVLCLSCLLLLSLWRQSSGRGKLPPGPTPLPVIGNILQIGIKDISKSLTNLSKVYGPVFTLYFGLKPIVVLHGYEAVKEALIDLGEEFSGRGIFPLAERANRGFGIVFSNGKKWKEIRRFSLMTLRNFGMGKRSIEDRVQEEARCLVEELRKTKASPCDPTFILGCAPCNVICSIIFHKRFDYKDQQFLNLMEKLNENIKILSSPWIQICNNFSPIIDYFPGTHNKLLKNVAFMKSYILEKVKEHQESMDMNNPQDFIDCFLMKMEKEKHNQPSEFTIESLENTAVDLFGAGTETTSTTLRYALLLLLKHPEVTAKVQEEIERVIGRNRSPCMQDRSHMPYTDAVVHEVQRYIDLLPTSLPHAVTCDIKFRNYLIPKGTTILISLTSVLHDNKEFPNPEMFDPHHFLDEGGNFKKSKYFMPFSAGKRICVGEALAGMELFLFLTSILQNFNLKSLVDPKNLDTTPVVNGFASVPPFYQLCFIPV

[4] = system: H9c2; assay: cells; type: functional, cell-based; settings: Rattus norvegicus, H9c2, Myocardium;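 further: confirmatory concentration-response retest of ultra-high-throughput screening hits for modulation of myocardial damage; cell death induced by hydrogen peroxide oxidative stress; compound pretreatment for 60 min then peroxide exposure for 2 h; potency is for protecting the cells against peroxide damage rather than for killing them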
[5] = molecular target: T1, Rac GTPase-activating protein 1 (Homo sapiens, UniProt Q9H0H5); assay: blockers of MgcRacGAP-driven Rac1 GTP hydrolysis – biochemical, ADP Hunter fluorescence, primary and confirmatory, confirmation (AID 624330); type: functional
T1 sequence (Q9H0H5 whole entry): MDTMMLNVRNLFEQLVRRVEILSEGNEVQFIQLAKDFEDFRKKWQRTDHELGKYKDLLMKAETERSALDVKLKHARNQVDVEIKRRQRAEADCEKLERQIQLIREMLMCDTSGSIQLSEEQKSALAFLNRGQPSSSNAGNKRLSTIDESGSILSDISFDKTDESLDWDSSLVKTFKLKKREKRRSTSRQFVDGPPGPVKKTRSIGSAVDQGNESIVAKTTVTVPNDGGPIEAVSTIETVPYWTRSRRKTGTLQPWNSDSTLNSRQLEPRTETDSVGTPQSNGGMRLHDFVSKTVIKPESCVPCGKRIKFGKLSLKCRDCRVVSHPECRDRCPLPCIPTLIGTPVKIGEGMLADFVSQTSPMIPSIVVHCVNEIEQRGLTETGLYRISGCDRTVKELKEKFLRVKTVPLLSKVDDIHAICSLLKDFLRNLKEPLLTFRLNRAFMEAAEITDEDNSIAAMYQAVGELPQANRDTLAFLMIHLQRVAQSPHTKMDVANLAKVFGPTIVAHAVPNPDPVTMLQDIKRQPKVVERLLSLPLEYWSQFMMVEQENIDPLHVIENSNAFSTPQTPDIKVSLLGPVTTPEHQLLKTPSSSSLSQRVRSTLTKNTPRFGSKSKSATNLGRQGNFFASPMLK

[6] = molecular target: T2, Cytochrome P450 1A2 (Homo sapiens, UniProt P05177);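 further: PubChem cytochrome P450 panel assay, CYP1A2 panel member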
T2 sequence (P05177 whole entry): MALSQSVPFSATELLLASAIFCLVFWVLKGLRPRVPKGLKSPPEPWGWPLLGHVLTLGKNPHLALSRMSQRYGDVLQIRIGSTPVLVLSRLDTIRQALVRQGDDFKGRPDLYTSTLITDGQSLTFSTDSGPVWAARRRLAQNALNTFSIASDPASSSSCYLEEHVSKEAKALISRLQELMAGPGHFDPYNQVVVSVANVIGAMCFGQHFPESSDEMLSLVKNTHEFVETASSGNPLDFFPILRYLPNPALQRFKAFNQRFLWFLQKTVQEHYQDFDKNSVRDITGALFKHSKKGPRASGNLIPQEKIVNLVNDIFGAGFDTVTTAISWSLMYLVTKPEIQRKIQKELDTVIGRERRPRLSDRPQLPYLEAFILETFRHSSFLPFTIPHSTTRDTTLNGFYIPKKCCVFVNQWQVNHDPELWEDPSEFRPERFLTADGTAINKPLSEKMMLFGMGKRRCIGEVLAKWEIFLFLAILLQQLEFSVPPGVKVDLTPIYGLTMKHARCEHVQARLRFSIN

[7] = system: Streptococcus sp. 'group A'; assay: Streptococcus pyogenes SK(-)GAS viability under kanamycin – luminescence, BacTiterGlo, confirmation, counter-screen for streptokinase expression inhibitor project, dose response (AID 1900); type: functional, organism-based
[8] = system: Streptococcus; assay: GAS UMAA2166 growth inhibition – luminescence, BacTiterGlo, counter-screen for streptokinase expression inhibitor project, dose response (AID 1915); type: functional, organism-based;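 further: potency for reduction of bacterial viability or growth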
[9] = Luminescence Cell-Based Dose Retest to Confirm Inhibitors of Cancer Stem Cells. [Related pubchem assays (depositor defined):AID2717, AID2721]; type: functional; settings: Homo sapiens

Sequence of Cytochrome P450 3A4 (P08684 whole entry): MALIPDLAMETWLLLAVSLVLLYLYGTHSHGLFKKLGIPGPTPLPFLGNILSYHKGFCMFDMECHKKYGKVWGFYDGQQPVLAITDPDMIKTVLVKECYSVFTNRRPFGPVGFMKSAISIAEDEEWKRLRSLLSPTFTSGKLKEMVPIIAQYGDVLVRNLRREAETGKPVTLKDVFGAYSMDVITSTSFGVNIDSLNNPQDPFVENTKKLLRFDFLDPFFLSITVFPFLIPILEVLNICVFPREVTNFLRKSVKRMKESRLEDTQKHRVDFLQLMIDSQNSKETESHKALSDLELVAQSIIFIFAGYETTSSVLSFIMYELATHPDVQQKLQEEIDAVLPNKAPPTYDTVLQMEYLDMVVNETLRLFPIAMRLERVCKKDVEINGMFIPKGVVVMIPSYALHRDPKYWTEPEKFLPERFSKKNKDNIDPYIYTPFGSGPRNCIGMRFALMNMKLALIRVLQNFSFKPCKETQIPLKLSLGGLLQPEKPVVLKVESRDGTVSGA

AC50 [2]: 39.8 µM (inconclusive)
AC50 [1]: 17.8 µM (inconclusive)
SMILES: CCCOc1ccc(C2C(=O)N(C3CCCCC3)CC(=O)N2C2CC2)cc1OC (centres undefined)

AC50 [2]: 39.8 µM (inconclusive)
AC50 [1]: 25.1 µM (inconclusive)
AC50 [3]: 7.94 µM (inconclusive)
SMILES: CS(=O)(=O)Nc1ccc(C(=O)N2CCN(c3ccccc3)CC2)cc1

IC50 [5]: 198 µM (active)
SMILES: COc1ccc(NC2CCCN(C(=O)c3ccccc3N3CCOCC3)C2)cc1OC (centres undefined)

AC50 [6]: 20 µM (inconclusive)
SMILES: COC(=O)[C@@]1(Cc2ccc(F)cc2)[C@H]2c3cc(C(=O)N4CCCC4)n(CCc4ccc(O)c(O)c4)c3C[C@H]2CN1C(=O)c1ccccc1

AC50 [3]: 10 µM (inconclusive)
SMILES: CCCC(=O)Nc1cccc(Oc2nc(C)cc(C)c2C#N)c1

AC50 [2]: 6.31 µM (inconclusive)
AC50 [6]: 0.0794 µM (inconclusive)
SMILES: O=C(c1c[nH]c(=O)n(-c2ccccc2)c1=O)N1CCc2ccccc21

AC50 [3]: 20 µM (inconclusive)
SMILES: O=c1oc2c(CN3CCOCC3)c(O)ccc2c2ccccc12

AC50 [2]: 3.55 µM (inconclusive)
AC50 [1]: 0.631 µM (inconclusive)
SMILES: CCn1c(=O)c2c(=O)cc(O)oc2c2ccccc21

AC50 [6]: 0.126 µM (inconclusive)
SMILES: COC(=O)c1nnn(Cc2ccccc2)c1N

AC50 [1]: 3.16 µM (inconclusive)
AC50 [3]: 3.16 µM (inconclusive)
SMILES: O=C(C[N+]12CN3CN(CN(C3)C1)C2)c1ccc(-c2ccccc2)cc1

AC50 [6]: 5.01 µM (inconclusive)
SMILES: O=C(Nc1ccccc1C(=O)O)c1ccc2ccccc2n1

AC50 [6]: 20 µM (inconclusive)
SMILES: CCNc1ncc2nc(-c3ccc(F)cc3)c(=O)n(Cc3ccc(F)cc3)c2n1

AC50 [3]: 39.8 µM (inconclusive)
SMILES: COc1cc(CNC(C)(C)CO)ccc1OCC(=O)Nc1ccc(Br)cc1

AC50 [1]: 15.8 µM (inconclusive)
SMILES: CCOC(=O)c1cccc(NC(=O)COc2ccc([N+](=O)[O-])cc2)c1

AC50 [1]: 31.6 µM (inconclusive)
SMILES: O=c1cnc2cnc(Nc3ccccc3)nc2n1C[C@H]1CCCO1

IC50 [5]: 100 µM (active)
SMILES: CCn1c2ccccc2c2cc(NC(=O)CNC)ccc21

AC50 [2]: 14.1 µM (inconclusive)
AC50 [6]: 15.8 µM (inconclusive)
AC50 [1]: 39.8 µM (inconclusive)
SMILES: O=C(Cn1ccc([N+](=O)[O-])n1)NCc1cccs1

AC50 [6]: 25.1 µM (inconclusive)
SMILES: CC(=O)NCCNc1cc(-c2ccccc2C(F)(F)F)ncn1

AC50 [2]: 31.6 µM (inconclusive)
AC50 [3]: 15.8 µM (inconclusive)
SMILES: Cn1cc(-c2nc3cncnc3n(CCN)c2=O)c2ccccc21

AC50 [2]: 20 µM (inconclusive)
AC50 [6]: 20 µM (inconclusive)
SMILES: COC(=O)c1ccc(C#CC(NP(=O)(c2ccccc2)c2ccccc2)c2ccccc2)cc1 (centres undefined)

AC50 [6]: 3.55 µM (inconclusive)
AC50 [3]: 0.0631 µM (inconclusive)
SMILES: COc1ccccc1NC(=O)CSc1nc2ccccc2cc1Cc1ccccc1

IC50 [5]: 134 µM (active)
SMILES: Brc1cccc(OCCN2CCOCC2)c1

AC50 [1]: 3.55 µM (inconclusive)
AC50 [3]: 8.91 µM (inconclusive)
SMILES: Cc1ccc(COn2c(-c3ccc(Cl)cc3)nc3ccc([N+](=O)[O-])cc32)cc1

AC50 [3]: 28.2 µM (inconclusive)
SMILES: COC(=O)c1sccc1NC(=O)CN(C)NS(=O)(=O)c1ccc(F)cc1

AC50 [6]: 6.31 µM (inconclusive)
AC50 [1]: 2 µM (inconclusive)
SMILES: COCCn1c(=O)c(-c2ccc(OC)cc2)nc2cnc(Oc3cccc(Cl)c3)nc21

AC50 [6]: 6.31 µM (inconclusive)
AC50 [3]: 20 µM (inconclusive)
SMILES: N=c1sccn1CC(=O)Nc1cccc(Oc2ccccc2)c1

AC50 [3]: 20 µM (inconclusive)
SMILES: O=C(NCc1cccnc1)C1COc2ccccc2O1 (centres undefined)

AC50 [1]: 25.1 µM (inconclusive)
SMILES: C=CC(C)(C)c1[nH]c2ccccc2c1C1=C(O)C(O)=C(c2c[nH]c3c(CC=C(C)C)cccc23)C(=O)C1=O

IC50 [5]: 63.7 µM (active)
SMILES: O=C(CNC(=O)c1cccs1)N/N=C/c1ccc(O)cc1O

AC50 [3]: 0.794 µM (inconclusive)
SMILES: COc1ccc(CNc2ncnc3ccc(-c4ccccc4C#N)cc23)c(OC)c1

AC50 [6]: 12.6 µM (inconclusive)
SMILES: CS(=O)(=O)Nc1ccc([N+](=O)[O-])cc1Oc1ccccc1 [NIMESULIDE]

More lines, now with the values behind:

SMILES: NCC#Cc1ccccc1
AC50 [1]: 15.8 µM (inconclusive)

SMILES: COc1ccc(-c2csc(NC(=O)CCCc3nc(O)c4ccccc4n3)n2)cc1OC
IC50 [4]: > 79 µM (inactive)

SMILES: CC(=O)c1ccc(NC(S)=Nc2ccc(Br)c(Cl)c2)cc1
EC50 [7]: 7.95 µM (active)
EC50 [8]: 8.74 µM (active)

SMILES: NS(=O)(=O)c1ccc(NC(=O)Nc2cccc3ccccc23)cc1
AC50 [6]: 1 µM (inconclusive)

SMILES: COc1ccc(CNn2c(-c3cccs3)nc3ccccc3c2=O)cc1OC
IC50 [4]: 8.92 µM (active)

SMILES: COC(=O)C(C)N=C(S)N1CCN(c2c(F)cc3c(=O)c(C(=O)O)cn(C4CC4)c3c2OC)CC1C (centres undefined)
EC50 [7]: 2.85 µM (active)
EC50 [8]: 4.39 µM (active)

SMILES: CC(=O)O/C(=C1/C[C@H]2[C@@H]3CC=C4C[C@@H](OC(C)=O)CC[C@]4(C)[C@@H]3CC[C@]2(C)C1=O)C(F)(F)F
AC50 [6]: 5.01 µM (inconclusive)
AC50 [3]: 3.16 µM (inconclusive)

SMILES: COc1ccc(-c2cc(-c3nnc(COC(=O)C4CC4C)o3)c3ccccc3n2)cc1OC (centres undefined)
IC50 [4]: 8.29 µM (active)

SMILES: CCOC(=O)Cc1csc(SCc2cc(=O)oc3cc(O)ccc23)n1
IC50 [4]: > 79 µM (inactive)

SMILES: O=C(CSc1nc(O)c2ccccc2n1)c1ccccc1
IC50 [4]: > 79 µM (inactive)

SMILES: NCCSC(c1ccccc1)c1ccccc1
AC50 [6]: 1.58 µM (inconclusive)
AC50 [1]: 3.16 µM (inconclusive)

SMILES: CCOC(=O)CSc1nc(O)c2c(C)c(C)sc2n1
IC50 [4]: 10.2 µM (active)

SMILES: COC(=O)Nc1nc2cc(-c3nnc(O)c4ccccc34)ccc2[nH]1
AC50 [9]: 11.2 µM (active)

SMILES: CC(=O)c1ccccc1OCCCN1CCCCC1
IC50 [4]: > 79 µM (inactive)

SMILES: COc1ccc(-n2nc(C(=O)NCC(=O)Nc3cc(OC)c(OC)c(OC)c3)c3ccccc3c2=O)cc1Cl
IC50 [4]: > 79 µM (inactive)

SMILES: COc1ccccc1NC(=O)c1ccc(NC(=O)Cc2nnc(O)c3ccccc23)cc1
IC50 [4]: > 79 µM (inactive)

SMILES: CC1=C2[C@@H]3OC(=O)[C@@H](C)[C@@H]3CC[C@]2(C)C=CC1=O
AC50 [6]: 10 µM (inconclusive)

SMILES: CN(CC(=O)Nc1ccccc1Cl)C(=O)CCc1nc(O)c2ccccc2n1
IC50 [4]: 23.8 µM (active)

SMILES: COc1cc(OC)cc(-c2sc3ccc(OC)cc3c2-c2ccc3cc[nH]c3c2)c1
AC50 [9]: 1.87 µM (active)

SMILES: COc1cc(-c2nnc(-c3cc(-c4ccccc4)nc4ccccc34)o2)cc(OC)c1OC
IC50 [4]: 10.5 µM (active)

SMILES: CC(=O)Nc1cccc(/C(C)=N/NC(=O)c2cccs2)c1
IC50 [4]: > 79 µM (inactive)

SMILES: O=C(CNC(=O)c1cccc(F)c1)N/N=C/c1cc(Br)ccc1OC(=O)/C=C/c1ccco1
IC50 [4]: > 79 µM (inactive)

SMILES: Cc1cccc(/N=C/c2c(O)ccc3oc4c(c23)CCCC4)n1
IC50 [4]: > 79 µM (inactive)

SMILES: COc1cc(/C=N\NC(=O)c2cccnc2)ccc1OC(=O)c1ccccc1Cl
IC50 [4]: > 79 µM (inactive)

SMILES: COc1cc(/C=N/NC(=O)C2(O)c3ccccc3-c3ccccc32)ccc1O
IC50 [5]: 47.6 µM (active)

SMILES: COc1ccc(N/N=C(/C(C)=O)N2CCCc3ccccc32)cc1
AC50 [9]: 1.58 µM (active)

SMILES: Cc1ccc(N/N=C/c2cccnc2)cc1
AC50 [9]: 4.39 µM (active)

SMILES: O=C(/C(=N/Nc1cccc(C(F)(F)F)c1)C(=O)C(F)(F)F)c1cccs1
AC50 [9]: 1.76 µM (active)

SMILES: COc1ccc(OC)c(-c2nnc3n2N=C(c2ccc(OC(F)F)c(OCC4CC4)c2)CS3)c1
AC50 [9]: 7.23 µM (active)

SMILES: CN(C)CCC=C1c2ccccc2CCc2ccccc21 [AMITRIPTYLINE]
AC50 [6]: 15.8 µM (inconclusive)
